For one data set, the system named is HT-29. Kind of data set: Cytotoxicity against human HT-29 cells after 7 hrs by MTT assay. It counts as functional. The note with it: for EC50: Homo sapiens, HT-29, 7 h, read-out: ED50 (the source's name).
Another data set has as its system MCF7. Briefly: Cytotoxicity against human MCF7 cells after 7 hrs by MTT assay. It counts as functional. The note with it: for EC50: Homo sapiens, MCF7, 7 h, read-out: ED50 (the source's name). Background: Tetrazolium dyes change colour on reduction, which living cells bring about.
A further data set relates to A549. Briefly: Cytotoxicity against human A549 cells after 7 hrs by MTT assay. It counts as functional. The note with it: A549, 7 h, read-out: ED50 (the source's name).
The nature of data set [1]: Toxicity in brine shrimp. The note with it: artemia, in vivo. Type of data set: organism-based.
Data set [2] in a line: Inhibition of respiration in rat liver mitochondria assessed per mg of protein. It counts as functional.

In brackets after ≈: the same amount, converted by molar mass.

With `CCCCCCCCCCCC/C=C\CC[C@H]1OC(C)(C)O[C@@H]1CCCCCCC(=O)CCCCC[C@@H](O)CC1=C[C@H](C)OC1=O`, the EC50 is 0.932 µg/mL (≈ 1.44 µM) in the data set on HT-29, 0.347 µg/mL (≈ 0.536 µM) in the data set with MCF7 and under 0.001 µg/mL in the data set on A549.
As for `CCCCCCCCCCCC[C@H](O)[C@@H]1CC[C@@H]([C@@H](O)CCCCCCC(=O)CCCCC[C@@H](O)CC2=C[C@H](C)OC2=O)O1`, the figures for the ED50 with HT-29 and in the data set on MCF7 were 3.46 ×10⁻⁴ ug/ml and 7.47 ×10⁻⁵ ug/ml, respectively. In data set [1], this molecule gave a 50% lethal concentration (LC50) of 0.84 µg/mL (≈ 1.35 µM). The molecule further had an IC50 in data set [2] of 1.7 µM. In the data set on A549, the EC50 amounted to 0.00786 µg/mL (≈ 0.0126 µM).
Consider `CCCCCCCCCCCC/C=C\CC[C@@H](O)[C@H](O)CCCCCCC(O)CCCCC[C@@H](O)CC1=C[C@H](C)OC1=O` (stereo partly drawn), for which the EC50 with HT-29 was 2.62 µg/mL (≈ 4.3 µM); in the data set on MCF7, 0.0572 µg/mL (≈ 0.0939 µM); in the data set on A549 it was under 0.001 µg/mL.
In the case of `CCCCCCCCCCCC[C@H](O)[C@@H]1CC[C@H]([C@H](O)CCCCCCC(=O)CCCCC[C@@H](O)CC2=C[C@H](C)OC2=O)O1`, the EC50 was 0.047 µg/mL (≈ 0.0755 µM) in the data set on HT-29, 0.056 µg/mL (≈ 0.0899 µM) with MCF7 and 0.0045 µg/mL (≈ 0.00722 µM) in the data set with A549. The median lethal concentration (LC50) in data set [1] is 0.98 µg/mL (≈ 1.57 µM).
Take `COc1cccc2c1C(=O)c1c(O)c3c(c(O)c1C2=O)C[C@@](O)(C(=O)CO)C[C@@H]3O[C@H]1C[C@H](N)[C@H](O)[C@H](C)O1` [DOXORUBICIN]: the EC50 in the data set with HT-29 came out at 0.0392 µg/mL (≈ 0.0721 µM); in the data set on MCF7 it was 0.23 µg/mL (≈ 0.423 µM); with A549, 0.0092 µg/mL (≈ 0.0169 µM).
As for `C=C(C)[C@H]1Cc2c(ccc3c2O[C@@H]2COc4cc(OC)c(OC)cc4[C@@H]2C3=O)O1` [ROTENONE], the IC50 in data set [2] is 34 µM.
For the molecule `CCCCCCCCCCCC/C=C\CC[C@@H](O)[C@H](O)CCCCCCC(=O)CCCCC[C@@H](O)CC1=C[C@H](C)OC1=O` [VENEZENIN], the EC50 is 1.58 µg/mL (≈ 2.6 µM) in the data set on HT-29, under 0.01 µg/mL in the data set with MCF7 and 0.0108 µg/mL (≈ 0.0178 µM) in the data set on A549. The molecule further came in with an LC50 in data set [1] of 9.33 µg/mL (≈ 15.4 µM).

One may read the LC50 as the concentration lethal to half of the exposed cells or organisms. The low end stands for a more lethal substance, the high end for a less lethal substance. Broadly, the IC50 is the concentration needed to halve the response being measured. Low values mean greater potency in that assay, high ones weaker potency in that assay.

(Values after ChEMBL document CHEMBL1159236, “Venezenin: a new bioactive Annonaceous acetogenin from the bark of Xylopia aromatica” (J Nat Prod, 1995).)
